# Data reported in PMC12409580, “Modulating Receptor Activity, Immune Response, and Kinetic Solubility: The Impact of Linker Chemistry in Conjugated NOD2/TLR4 Agonists” (ACS Omega, 2025).
# Entries after “also recorded” stand apart in the source; their conditions may differ. Marks after values point to notes of the source that are not given here.
# Tests used:
# [1] = parameters: method as in previous studies; conditions: kinetic solubility; ref previous studies; cited from earlier work
# NOD2 = NOD2 (Homo sapiens, UniProt Q9HC29); assay: NOD2 NF-κB SEAP reporter assay in HEK-Blue hNOD2 cells
# NOD2, sequence (Q9HC29 whole entry): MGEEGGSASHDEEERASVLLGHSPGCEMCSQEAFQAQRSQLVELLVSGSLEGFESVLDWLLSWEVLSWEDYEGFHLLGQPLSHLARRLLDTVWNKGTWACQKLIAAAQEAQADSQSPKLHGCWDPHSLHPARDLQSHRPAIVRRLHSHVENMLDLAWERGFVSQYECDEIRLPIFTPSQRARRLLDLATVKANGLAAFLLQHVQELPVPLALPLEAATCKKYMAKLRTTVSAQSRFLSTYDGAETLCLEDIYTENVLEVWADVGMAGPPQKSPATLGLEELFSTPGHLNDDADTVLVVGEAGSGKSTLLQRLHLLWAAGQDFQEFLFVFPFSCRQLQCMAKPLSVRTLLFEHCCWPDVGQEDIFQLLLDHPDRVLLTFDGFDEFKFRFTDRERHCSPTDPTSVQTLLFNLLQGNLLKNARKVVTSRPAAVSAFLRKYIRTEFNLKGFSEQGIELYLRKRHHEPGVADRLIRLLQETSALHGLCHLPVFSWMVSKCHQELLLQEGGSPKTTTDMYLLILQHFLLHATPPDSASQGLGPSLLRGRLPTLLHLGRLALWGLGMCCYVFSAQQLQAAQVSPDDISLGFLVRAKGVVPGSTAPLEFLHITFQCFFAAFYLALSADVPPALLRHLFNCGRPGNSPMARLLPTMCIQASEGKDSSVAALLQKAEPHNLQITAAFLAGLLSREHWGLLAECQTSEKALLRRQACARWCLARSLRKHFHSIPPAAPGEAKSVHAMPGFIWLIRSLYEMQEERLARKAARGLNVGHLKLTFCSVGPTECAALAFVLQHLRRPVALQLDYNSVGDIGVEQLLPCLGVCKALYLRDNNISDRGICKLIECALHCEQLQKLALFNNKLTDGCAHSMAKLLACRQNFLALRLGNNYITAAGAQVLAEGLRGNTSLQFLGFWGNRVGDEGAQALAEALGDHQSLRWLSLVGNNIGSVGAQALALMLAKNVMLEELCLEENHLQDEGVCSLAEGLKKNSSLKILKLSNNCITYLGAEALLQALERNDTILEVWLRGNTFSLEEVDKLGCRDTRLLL
# [2] = parameters: method as in previously reported; conditions: ref previously reported; cited from earlier work
# [3] = Kinetic solubility in PBS (HPLC solubility assay); conditions: aqueous buffer, kinetic from dmso stock
# TLR4 = TLR4 (Homo sapiens, UniProt O00206+Q9Y6Y9); assay: TLR4 NF-κB SEAP reporter assay in HEK-Blue hTLR4 cells; conditions: for TLR4 activation at 10 μM, fold increase / TLR4 activation at 100 μM, fold increase: 18 h, NF-κB transcriptional activity (SEAP) relative to 0.1% DMSO; for concentration at which compound activated TLR4: dose-response 0.5–10 μM (17–21) or 1–100 μM (27–31)
# TLR4, sequence (O00206 24-839): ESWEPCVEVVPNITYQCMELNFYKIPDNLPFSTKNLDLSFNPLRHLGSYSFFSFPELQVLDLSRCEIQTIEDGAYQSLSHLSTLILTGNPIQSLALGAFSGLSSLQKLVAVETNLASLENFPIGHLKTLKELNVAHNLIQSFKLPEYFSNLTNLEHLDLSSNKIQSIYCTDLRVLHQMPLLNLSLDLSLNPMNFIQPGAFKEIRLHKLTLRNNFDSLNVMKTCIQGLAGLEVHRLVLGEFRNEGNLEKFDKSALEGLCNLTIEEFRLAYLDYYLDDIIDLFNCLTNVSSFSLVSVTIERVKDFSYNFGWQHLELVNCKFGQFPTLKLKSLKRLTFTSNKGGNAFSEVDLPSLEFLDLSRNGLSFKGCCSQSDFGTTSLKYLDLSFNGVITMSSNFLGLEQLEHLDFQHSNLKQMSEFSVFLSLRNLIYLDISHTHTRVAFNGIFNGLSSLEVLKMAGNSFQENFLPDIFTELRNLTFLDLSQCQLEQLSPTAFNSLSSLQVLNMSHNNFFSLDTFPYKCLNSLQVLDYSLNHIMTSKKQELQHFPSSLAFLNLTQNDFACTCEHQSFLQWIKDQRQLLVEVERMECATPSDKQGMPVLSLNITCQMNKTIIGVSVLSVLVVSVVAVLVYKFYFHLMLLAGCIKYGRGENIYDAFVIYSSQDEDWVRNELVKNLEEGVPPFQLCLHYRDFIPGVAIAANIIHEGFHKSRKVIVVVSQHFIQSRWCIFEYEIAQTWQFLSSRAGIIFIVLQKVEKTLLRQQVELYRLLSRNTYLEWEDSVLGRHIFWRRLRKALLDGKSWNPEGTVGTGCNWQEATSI
# TLR4, sequence (Q9Y6Y9 17-160 limits assumed): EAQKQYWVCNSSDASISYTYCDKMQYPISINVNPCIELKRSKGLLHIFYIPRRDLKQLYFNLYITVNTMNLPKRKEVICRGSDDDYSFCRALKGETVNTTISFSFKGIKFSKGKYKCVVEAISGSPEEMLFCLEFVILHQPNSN
# human PBMCs = conditions: 1 μM, 18 h
# [4] = PBS, Solubility sample 1, Tables S1–S3, replicate 1
# [5] = PBS, Solubility sample 2, Tables S1–S3, replicate 2
# [6] = PBS, solubility in PBS, kinetic solubility, HPLC solubility assay
# [7] = 18 h, NF-κB transcriptional activity (SEAP) relative to 0.1% DMSO
# [8] = Average solubility, Tables S1–S3, average of two samples
# [9] = Solubility sample 1, Tables S1–S3, replicate 1
# [10] = Solubility sample 2, Tables S1–S3, replicate 2
# [11] = solubility in PBS, kinetic solubility, HPLC solubility assay
Structure (SMILES),"solubility [3, 4] [µM]","solubility [3, 5] [µM]","solubility [3, 6] [µM]","TLR4 activation at 10 μM, fold increase (TLR4; 10 μM) [fold increase]","TLR4 activation at 100 μM, fold increase (TLR4) [fold increase]","NOD2 activation at 10 μM, fold increase (NOD2; [7]) [fold increase]","solubility [3, 8] [µM]","solubility [3, 9] [µM]","solubility [3, 10] [µM]","solubility [3, 11] [µM]",other results
"CCOC(=O)C(CCC(=O)O)NC(=O)C(NC(=O)CNC(=O)C=Cc1ccc(O)c(OC)c1)C(C)C (stereo not shown) [Compound 3, reference compound]",,,,,,,,,,,"solubility in PBS [1]: 414.8 ^c μM; NOD2 activation, fold increase (NOD2; 2 μM, 18 h, NF-κB transcriptional activity (SEAP) relative to 0.1% DMSO): 3.06 ^d fold increase"
"COc1cc(/C=C/C(=O)NCC(=O)N[C@H](C(=O)N[C@H](CCC(=O)OC2CCCC2)C(=O)OC2CCCC2)C(C)C)ccc1OC(=O)CCCCCNC(=O)CSc1nc2c([nH]c3ccccc32)c(=O)n1-c1ccccc1 [Compound 2, reference compound]",0.26,0.44,0.35,,,,,,,,immunostimulatory activity [2]: inactivity; also recorded: lacked immunostimulatory activity
"CCOC(=O)[C@H](CCC(=O)NCCCCCCNC(=O)CSc1nc2c([nH]c3ccccc32)c(=O)n1-c1ccccc1)NC(=O)[C@H](NC(=O)CNC(=O)/C=C/c1ccc(O)c(OC)c1)C(C)C [Compound 28, Ethyl N ^2-((E)-3-(4-Hydroxy-3-methoxyphenyl)acryloyl)glycyl-D-valyl-N ^5-(6-(2-((4-oxo-3-phenyl-4,5-dihydro-3H-pyrimido[5,4-b]indol-2-yl)thio)acetamido)hexyl)-L-glutaminate]",,,,1.06,1.72,1.65,80,115,80.7,80,
"CCOC(=O)[C@H](CCC(=O)NCCNC(=O)CSc1nc2c([nH]c3ccccc32)c(=O)n1-c1ccccc1)NC(=O)[C@H](NC(=O)CNC(=O)/C=C/c1ccc(O)c(OC)c1)C(C)C [Compound 27, Ethyl N ^2-((E)-3-(4-Hydroxy-3-methoxyphenyl)acryloyl)glycyl-D-valyl-N ^5-(2-(2-((4-oxo-3-phenyl-4,5-dihydro-3H-pyrimido[5,4-b]indol-2-yl)thio)acetamido)ethyl)-L-glutaminate]",,,,1.06,2.60,2.17,310,322,298,310,
"CCOC(=O)[C@@H](CCC(=O)N1CCC(CN2CCN(C(=O)Cc3ccc(C(C(=O)NC4CCCC4)N(C(=O)c4cc(-c5ccccc5)n(-c5ccccc5)n4)c4ccc5c(c4)CCC5)cc3)CC2)CC1)NC(=O)[C@@H](NC(=O)CNC(=O)/C=C/c1ccc(O)c(OC)c1)C(C)C (stereo partly drawn) [Compound 21, Ethyl (2R)-5-(4-((4-(2-(4-(2-(Cyclopentylamino)-1-(N-(2,3-dihydro-1H-inden-5-yl)-1,5-diphenyl-1H-pyrazole-3-carboxamido)-2-oxoethyl)phenyl)acetyl)piperazin-1-yl)methyl)piperidin-1-yl)-2-((S)-2-(2-((E)-3-(4-hydroxy-3-methoxyphenyl)acrylamido)acetamido)-3-methylbutanamido)-5-oxopentanoate]",0.34,0.32,0.33,5.30,,3.31,,,,,"maximum TLR4 activation (TLR4; HEK-Blue hTLR4, 21 at 10 μM): 5.30 fold; concentration at which compound activated TLR4 (TLR4): 0.5 µM; NOD2 agonist activity (NOD2; compared with NOD2 agonist 3 and MDP (4 μM)): comparable efficiency to MDP; overall cytokine production (human PBMCs): most potent immunomodulator in the series; production of IL-6, IL-10, TNF-α, and IFN-γ (human PBMCs): moderately enhanced"
"CCOC(=O)[C@H](CCC(=O)N1CCC(CN2CCN(C(=O)CSc3nc4c([nH]c5ccccc54)c(=O)n3-c3ccccc3)CC2)CC1)NC(=O)[C@H](NC(=O)CNC(=O)/C=C/c1ccc(O)c(OC)c1)C(C)C [Compound 31, Ethyl (S)-2-((R)-2-(2-((E)-3-(4-Hydroxy-3-methoxyphenyl)acrylamido)acetamido)-3-methylbutanamido)-5-oxo-5-(4-((4-(2-((4-oxo-3-phenyl-4,5-dihydro-3H-pyrimido[5,4-b]indol-2-yl)thio)acetyl)piperazin-1-yl)methyl)piperidin-1-yl)pentanoate]",,,,1.05,2.26,3.33,,7.22,6.15,6.68,
"CCOC(=O)[C@H](CCC(=O)NCCOCCOCCNC(=O)Cc1ccc(C(C(=O)NC2CCCC2)N(C(=O)c2cc(-c3ccccc3)n(-c3ccccc3)n2)c2ccc3c(c2)CCC3)cc1)NC(=O)[C@H](NC(=O)CNC(=O)/C=C/c1ccc(O)c(OC)c1)C(C)C (stereo partly drawn) [Compound 19, Ethyl (16S)-1-(4-(2-(Cyclopentylamino)-1-(N-(2,3-dihydro-1H-inden-5-yl)-1,5-diphenyl-1H-pyrazole-3-carboxamido)-2-oxoethyl)phenyl)-16-((R)-2-(2-((E)-3-(4-hydroxy-3-methoxyphenyl)acrylamido)acetamido)-3-methylbutanamido)-2,13-dioxo-6,9-dioxa-3,12-diazaheptadecan-17-oate]",2.59,1.68,2.14,2.78,,3.06,,,,,concentration at which compound activated TLR4 (TLR4): 5 µM
"CCOC(=O)[C@H](CCC(=O)NCCCCCCNC(=O)Cc1ccc(C(C(=O)NC2CCCC2)N(C(=O)c2cc(-c3ccccc3)n(-c3ccccc3)n2)c2ccc3c(c2)CCC3)cc1)NC(=O)[C@@H](NC(=O)CNC(=O)/C=C/c1ccc(O)c(OC)c1)C(C)C (stereo partly drawn) [Compound 18, Ethyl N ^5-(6-(2-(4-(2-(Cyclopentylamino)-1-(N-(2,3-dihydro-1H-inden-5-yl)-1,5-diphenyl-1H-pyrazole-3-carboxamido)-2-oxoethyl)phenyl)acetamido)hexyl)-N ^2-((E)-3-(4-hydroxy-3-methoxyphenyl)acryloyl)glycyl-L-valyl-D-glutaminate]",0.85,1.17,1.01,1.46,,2.43,,,,,TLR4 agonism (TLR4; 10 μM): weak TLR4 agonism
"CCOC(=O)[C@H](CCC(=O)NCCOCCOCCNC(=O)CSc1nc2c([nH]c3ccccc32)c(=O)n1-c1ccccc1)NC(=O)[C@H](NC(=O)CNC(=O)/C=C/c1ccc(O)c(OC)c1)C(C)C [Compound 29, Ethyl (S)-16-((R)-2-(2-((E)-3-(4-Hydroxy-3-methoxyphenyl)acrylamido)acetamido)-3-methylbutanamido)-2,13-dioxo-1-((4-oxo-3-phenyl-4,5-dihydro-3H-pyrimido[5,4-b]indol-2-yl)thio)-6,9-dioxa-3,12-diazaheptadecan-17-oate]",,,,1.00,1.43,1.60,238,232,244,238,
